Here are results for 11 compounds from patent US20110053901A1, “ACETYL MIMIC COMPOUNDS FOR THE INHIBITION OF ISOPRENYL-S-CYSTEINYL METHYLTRANSFERASE” (SIGNUM BIOSCIENCES, INC., priority 2008, published 2011).

For one experiment, the system named is dermal inflammation. The conditions noted are these: mice; cited from earlier work.
The target in experiment [1] is membrane-associated isoprenyl-S-cysteinyl methyltransferase (Homo sapiens, UniProt O60725). The settings on record: cited from earlier work.
membrane-associated isoprenyl-S-cysteinyl methyltransferase, sequence (O60725 whole entry): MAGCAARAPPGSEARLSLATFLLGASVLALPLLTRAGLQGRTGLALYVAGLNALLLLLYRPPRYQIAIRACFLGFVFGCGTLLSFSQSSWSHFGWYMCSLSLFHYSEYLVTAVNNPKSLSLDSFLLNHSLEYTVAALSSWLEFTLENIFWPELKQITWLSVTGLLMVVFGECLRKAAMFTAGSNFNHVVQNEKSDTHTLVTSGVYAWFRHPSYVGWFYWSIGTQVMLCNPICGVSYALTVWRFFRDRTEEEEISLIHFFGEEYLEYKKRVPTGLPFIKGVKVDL
For experiment [2], the system named is myeloperoxidase (MPO), neutrophil marker in TPA-treated ears. Briefly: Mouse ear model of TPA-induced contact inflammation: MPO inhibition (dermal neutrophil infiltration). In kind it is in vivo. The settings on record: topical on TPA-treated mouse ear, 6 mm biopsy punches; for inhibition in vivo at 0.2 mg: dose 0.2 mg/20 μL; for inhibition in vivo at 0.8 mg: dose 0.8 mg/20 μL. The text has this: (§1) G. et al., Anti-inflammatory Drugs, Clin. Pharmacol. Ther. 16, 900-4 (1974); Young et al., Tachyphylaxis in 12-Otetradecanoylphorbolacetate-and Arachidonic Acid-Induced Ear Edema; J. Invest. Dermatol. 80:48-52, (1983); Tramposch et al., In Vivo Models of Inflammation, (Morgan D W, Marshall L A eds), Birkha{umlaut over ( )}user Verlag: Basel, pp 179-204, 1999; and Gordon et al., Topical N-Acetyl-S-Farnesyl-L-Cysteine Inhibits Mouse Skin Inflammation, and Unlike Dexamethasone, Its Effects Are Restricted to the Application Site, J. Invest. Dermatol., 128(3):643-54, 2008 March)]. Moreover, the mouse ear model has been used by various groups to identify and compare members of differing classes of anti-inflammatory agents with multiple mechanisms of action (reviewed in Tramposch et al., 1999, supra).
To assay for inhibition of dermal neutrophil infiltration by S-isoprenyl and S-farnesyl cysteine compounds, a standard method was used (see Bradley et al., 1982, supra; Young et al., 1983, supra; De Young et al, “Edema and Cell Infiltration in the Phorbol Ester-treated Mouse Ear are Temporally Separate and can be Differentially Modulated by Pharmacologic Agents”, Agents Actions, 26(3-4): 335-41 (March 1989); and Rao et al. (1993) Comparative Evaluation of Arachidonic Acid (AA)-and Tetradecanoylphorbol Acetate (TPA)-Induced Dermal Inflammation, Inflammation 17:723-41). Briefly, we homogenized 6 mm biopsy punches taken from both compound-treated ears as well as TPA-treated and non-treated control groups. We quantitated the levels of MPO by a colorimetric reaction that was measured spectrophotometrically. The percent inhibition of neutrophil infiltration by each S-isoprenyl and S-farnesyl cysteine compound was determined by comparing the average MPO levels in the presence and absence of these compounds. The calculation for percent inhibition of MPO was determined similar to that as described for calculating the percent edema inhibition, see the Edema Inhibition protocol, supra. […] Gordon et al., “Topical N-acetyl-S-farnesyl-L-cysteine Inhibits Mouse Skin Inflammation, and Unlike Dexamethasone, its Effects Are Restricted to the Application Site”, J. Invest. Derm., Vol. 128 pp. 643-654 (2008).

Experiment [3] relates to TPA-treated ears of mice. Briefly: Mouse ear model of TPA-induced contact inflammation: edema inhibition (ear thickness). In kind it is in vivo. The conditions noted are these: topical on TPA-treated mouse ear, 24 hours; for inhibition in vivo at 0.2 mg: dose 0.2 mg/20 μL; for inhibition in vivo at 0.8 mg: dose 0.8 mg/20 μL.
Source text: as §1
The protocol for inducing in vivo acute contact inflammation on the ears of live mice has been described elsewhere (reviewed in Tramposch, 1999, supra). In brief, mice were sedated and their ears were treated with 1.2 μg/20 uL TPA (i.e., tetradecanoylphorbol-13-acetate). […] After 24 hours, the mice were sacrificed and edema was measured by taking micrometer readings of each ear. The percent inhibition of edema was determined by taking the average ear thickness of compound-treated ears and dividing it by the average thickness of 12 ears that only received TPA and subtracting that value from 100%. These values were corrected for the thickness of normal, non TPA-treated mouse ears of littermate controls. […] ED50 values were calculated as described in Gordon et al., “Topical N-acetyl-S-farnesyl-L-cysteine Inhibits Mouse Skin Inflammation, and Unlike Dexamethasone, its Effects Are Restricted to the Application Site”, J. Invest. Derm., Vol. 128 pp. 643-654 (2008).

Experiment [4] has as its system TPA-treated ears of mice. Description: Mouse ear model of TPA-induced contact inflammation: erythema inhibition (Δa* redness, chroma meter). In kind it is in vivo. The conditions noted are these: dose 0.2 mg/20 μL, topical on TPA-treated mouse ear, 24 hours post treatment.
Source text: as §1
Another well documented biomarker of skin inflammation is skin redness, termed erythema, which is caused by capillary congestion and dilation in response to various chemical and environmental insults (see Denig, N. I. et al., Irritant Contact Dermatitis. Clues to Causes, Clinical Characteristics, and Control, Postgrad Med., May (1998); 103(5):199-200, 207-8, 212-3). […]

For `CC(=O)N[C@@H](CSC/C=C(\C)CC/C=C(\C)CCC=C(C)C)C(=O)O` [AFC, N-acetyl-S-farnesyl-L-cysteine], the “effect on dermal inflammation” value in the experiment with dermal inflammation was “effectively reduces dermal inflammation”. In experiment [1], the “inhibition of isoprenyl-S-cysteinyl methyltransferase (mode)” value is given as “competitive inhibitor”.
For orientation: inhibition in vivo means the percentage by which the read-out fell short of the control. Consider `CNC(=S)N[C@@H](CSC/C=C(\C)CC/C=C(\C)CCC=C(C)C)C(=O)O` [Compound A], for which the inhibition in vivo at 0.2 mg in experiment [2] was 8.8 ± 6.29%; with TPA-treated ears of mice [3] it was 8.55 ± 3.7%.
Regarding `CC/N=C(\NCC)N[C@@H](CSC/C=C(\C)CC/C=C(\C)CCC=C(C)C)C(=O)O` [Compound B], in the experiment on TPA-treated ears of mice [4], the “% Inhibition Erythema” value is 0.51 ± 10.81 — %.
Turning to `CC(C)=CCC/C(C)=C/CC/C(C)=C/CSC[C@H](NC(=O)N1CCOCC1)C(=O)O` [Compound C], the results for the inhibition in vivo at 0.8 mg (in experiment [2]; with TPA-treated ears of mice [3]) were 61.8% and 34.1%, respectively.
Regarding `CC(C)=CCC/C(C)=C/CC/C(C)=C/CSC[C@H](NC(=O)N1CCCCC1)C(=O)O` [Compound D], the results for the inhibition in vivo at 0.8 mg (in experiment [2]; with TPA-treated ears of mice [3]) were 83.7% and 32.6%, respectively.
Taken in the same sequence, the figures for `CC(C)=CCC/C(C)=C/CC/C(C)=C/CSC[C@H](NC(=O)Nc1ccccc1)C(=O)O` [Compound E] were 75.4% and 18.2%.
Taken in the same sequence, the figures for `CC(C)=CCC/C(C)=C/CC/C(C)=C/CSC[C@H](NC(=O)N(c1ccccc1)c1ccccc1)C(=O)O` [Compound F] were 79.5% and 4.66%.
Taken in the same sequence, the figures for `CC(C)=CCC/C(C)=C/CC/C(C)=C/CSC[C@H](NC(=O)N1CCNC1=O)C(=O)O` [Compound G] were 58% and 13.4%.
As to `CC(C)=CCC/C(C)=C/CC/C(C)=C/CSC[C@H](Nc1ccnc(N)n1)C(=O)O` [Compound H], in experiment [2], the inhibition in vivo at 0.2 mg was found to be 63.5 ± 7.03% and the inhibition in vivo at 0.8 mg was 89%. In the experiment with TPA-treated ears of mice [3], this compound had an inhibition in vivo at 0.2 mg of 39.7 ± 1.67% and an inhibition in vivo at 0.8 mg of 50.1%.
In the case of `CC(C)=CCC/C(C)=C/CC/C(C)=C/CSC[C@H](Nc1ccnc(NN)n1)C(=O)O` [Compound I], the inhibition in vivo at 0.2 mg in experiment [2] amounted to 23.1 ± 6.79%; with TPA-treated ears of mice [3], 24.7 ± 16.5%.
In the case of `CC(C)=CCC/C(C)=C/CC/C(C)=C/CSC[C@H](Nc1ncccn1)C(=O)O` [Compound J], in the experiment on TPA-treated ears of mice [3], the inhibition in vivo at 0.2 mg stood at 1.89 ± 7.75%.
